US20100137315A1, “Sphingosine Kinase Inhibitors and Methods of Their Use” (APOGEE BIOTECHNOLOGY CORPORATION, priority 2005, published 2010)
Where two headings read alike, the source gives them in different places.

Columns and labels:
recombinant human SK = target: T1, recombinant human SK (Homo sapiens, UniProt Q9NYA1); assay: Inhibition of recombinant human SK, LC/MS/MS assay; type: biochemical; conditions: 6 μg/ml compound
T1 construct: glutathione-S-transferase (GST) (N); made in house; host or cells: bacteria (pGEX vector)
Method: An assay for identifying inhibitors of recombinant human SK has been established (French et al., 2003, Cancer Res 63: 5962). cDNA for human SK was subcloned into a pGEX bacterial expression vector, which results in expression of the enzyme as a fusion protein with glutathione-S-transferase, and the fusion protein is then purified on a column of immobilized glutathione. SK activity is measured by incubation of the recombinant SK with [^3H]sphingosine and 1 mM ATP under defined conditions, followed by extraction of the assay mixture with chloroform:methanol under basic conditions. […] Radioactivity in aliquots of the aqueous phase is then quantified as a measure of [^3H]S1P formation. There is a low background level of partitioning of [^3H]sphingosine into the aqueous phase, and addition of the recombinant SK greatly increases the formation of [^3H]S1P.
In an alternate assay procedure, the recombinant human SK was incubated with unlabeled sphingosine and ATP as described above. After 30 minutes, the reactions were terminated by the addition of acetonitrile to directly extract the newly synthesized S1P. The amount of S1P in the samples is then quantified as follows. C17 base D-erythro-sphingosine and C17 S1P are used as internal standards for sphingosine and S1P, respectively. These seventeen-carbon fatty acid-linked sphingolipids are not naturally produced, making these analogs excellent standards. The lipids are then fractionation by High-Performance Liquid Chromatography using a C8-reverse phase column eluted with 1 mM methanolic ammonium formate/2 mM aqueous ammonium formate. A Finnigan LCQ Classic LC-MS/MS is used in the multiple reaction monitoring positive ionization mode to acquire ions at m/z of 300 (precursor ion)→282 (product ion) for sphingosine and 380→264 for S1P. Calibration curves are generated by plotting the peak area ratios of the synthetic standards for each sphingolipid, and used to determine the normalized amounts of sphingosine and S1P in the samples.
Each Compound of this invention was tested for its ability to inhibit recombinant SK using the LC/MS/MS assay described above. Typically, the Compounds were individually dissolved in dimethylsulfoxide and tested at a final concentration of 6 micrograms/ml.

[1] = test system: MCF-7 human breast adenocarcinoma cells; assay: Cytotoxicity, SRB assay, 48 h; type: cell-based; conditions: Table 6, 48 h, SRB, inhibition of cell proliferation, read-out: MCF-7 IC50
Method: To further assess the biological efficacies of the Compounds in intact cells, each Compound was evaluated for cytotoxicity using human cancer cell lines. These experiments followed methods that have been extensively used. Cell lines tested included MCF-7 human breast adenocarcinoma cells. The indicated cell lines were treated with varying doses of the test Compound for 48 h. Cell survival was then determined using the SRB binding assay (Skehan et al., 1990, J Natl Cancer Inst 82: 1107), and the concentration of compound that inhibited proliferation by 50% (the IC50) was calculated. Values (in μM) represent the mean±sd for replicate trials.

T1 sequence (Q9NYA1 whole entry): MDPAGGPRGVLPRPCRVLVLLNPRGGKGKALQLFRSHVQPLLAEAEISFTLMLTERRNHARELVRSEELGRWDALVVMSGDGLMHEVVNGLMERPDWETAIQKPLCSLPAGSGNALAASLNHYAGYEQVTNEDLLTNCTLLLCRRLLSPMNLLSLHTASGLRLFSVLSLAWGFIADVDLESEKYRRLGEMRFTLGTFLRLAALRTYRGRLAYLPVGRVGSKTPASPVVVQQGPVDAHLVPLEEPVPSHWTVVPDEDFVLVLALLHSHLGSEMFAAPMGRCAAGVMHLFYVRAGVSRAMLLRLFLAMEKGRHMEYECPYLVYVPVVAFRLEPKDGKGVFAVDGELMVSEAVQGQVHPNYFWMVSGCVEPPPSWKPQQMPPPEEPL

Compound | inhibition at 6 µg/mL (recombinant human SK) | IC50 ([1]; Homo sapiens, MCF7) | IC50 [1]
CCCCCCCCCCCCCCCC(=O)Nc1nc2cc(Cl)ccc2o1 [Compound 92, Hexadecanoic Acid (5-chloro-benzooxazol-2-yl)-amide] | – | 7.6 µM | –
O=C(Nc1nc2cc(Cl)ccc2s1)c1ccccc1O [Compound 96, N-(5-Chloro-benzothiazol-2-yl)-2-hydroxy-benzamide] | – | 24 µM | –
CC(=O)Oc1ccc(C=CC(=O)Nc2nc(-c3ccc(Cl)cc3)cs2)cc1 [Compound 12, Acetic acid 4-{2-[4-(4-chloro-phenyl)-thiazol-2-ylcarbamoyl]-vinyl}-phenyl ester] | – | 125 µM | –
CCCC(=O)Oc1ccccc1C=CC(=O)Nc1nc(-c2ccc(Cl)cc2)cs1 [Compound 13, Butyric acid 2-{2-[4-(4-chloro-phenyl)-thiazol-2-ylcarbamoyl]-vinyl}-phenyl ester] | 0% | 2.3 µM | –
CCCC(=O)Oc1cccc(C=CC(=O)Nc2nc(-c3ccc(Cl)cc3)cs2)c1 [Compound 14, Butyric acid 3-{2-[4-(4-chloro-phenyl)-thiazol-2-ylcarbamoyl]-vinyl}-phenyl ester] | 0% | 2.9 µM | –
O=C(C=Cc1ccccc1)Nc1nc2cc(Cl)ccc2o1 [Compound 88, N-(5-Chloro-benzooxazol-2-yl)-3-phenyl-acrylamide] | – | 1.3 µM | –
O=C(Nc1nc2cc(Cl)ccc2o1)c1ccccc1[N+](=O)[O-] [Compound 87, N-(5-Chloro-benzooxazol-2-yl)-2-nitro-benzamide] | – | 9.8 µM | –
CCCC(=O)Oc1cc(C=CC(=O)Nc2nc(-c3ccc(Cl)cc3)cs2)ccc1OC [Compound 18, Butyric acid 5-{2-[4-(4-chloro-phenyl)-thiazol-2-ylcarbamoyl]-vinyl}-2-methoxy-phenyl ester] | – | 2.7 µM | –
O=C(C=Cc1ccc([N+](=O)[O-])cc1)Nc1nc2cc(Cl)ccc2o1 [Compound 89, N-(5-Chloro-benzooxazol-2-yl)-3-(4-nitro-phenyl)-acrylamide] | – | 1.2 µM | –
CCCC(=O)Oc1ccc(CC(=O)Nc2nc(-c3ccc(Cl)cc3)cs2)cc1OC(=O)CCC [Compound 17, Butyric acid 2-butyryloxy-5-{[4-(4-chloro-phenyl)-thiazol-2-ylcarbamoyl]-methyl}-phenyl ester] | – | 4 µM | –
4-(4-Chloro-phenyl)-thiazole-2-carboxylic acid (2-pyridin-4-yl)-amide [Compound 74] | – | – | 120 µM
COc1cc(C=CC(=O)Nc2nc(-c3cccc(Cl)c3)cs2)ccc1O [Compound 9, N-[4-(3-Chloro-phenyl)-thiazol-2-yl]-3-(4-hydroxy-3-methoxy-phenyl)-acrylamide] | – | 7.8 µM | –
C=CCCCCCCCCC(=O)Nc1nc2cc(Cl)ccc2o1 [Compound 90, Undec-10-enoic acid (5-chloro-benzooxazol-2-yl)-amide] | – | 19 µM | –
CCCC(=O)Oc1ccc(C=CC(=O)Nc2nc(-c3ccc(C)cc3)cs2)cc1OC [Compound 19, Butyric acid 2-methoxy-4-[2-(4-p-tolyl-thiazol-2-ylcarbamoyl)-vinyl]-phenyl ester] | 36% | – | –
CCCCCCCCCCCCCC(=O)Nc1nc2cc(Cl)ccc2o1 [Compound 91, Tetradecanoic Acid (5-chloro-benzooxazol-2-yl)-amide] | – | 2.6 µM | –
CCCC(=O)Oc1ccc(CC(=O)Nc2nc(-c3ccc(Cl)cc3)cs2)cc1OC [Compound 16, Butyric acid 4-{[4-(4-chloro-phenyl)-thiazol-2-ylcarbamoyl]-methyl}-2-methoxy-phenyl ester] | – | 5.6 µM | –
CCCC(=O)Oc1ccc(C=CC(=O)Nc2nc(-c3ccc(Cl)cc3)cs2)cc1OC(=O)CCC [Compound 11, Butyric acid 2-butyryloxy-5-{2-[4-(4-chloro-phenyl)-thiazol-2-ylcarbamoyl]-vinyl}-phenyl ester] | – | 10 µM | –

Continued, in another order:

inhibition at 6 µg/mL (recombinant human SK) | Compound | IC50 ([1]; Homo sapiens, MCF7) | IC50 [1]
0% | O=C(NCc1ccncc1)c1nc(-c2ccc(Cl)cc2)cs1 [Compound 34, 4-(4-Chloro-phenyl)thiazole-2-carboxylic acid (pyridin-4-ylmethyl)amide] | 38 µM | –
44% | Clc1ccc(-c2csc(N(CCCc3ccccc3)CCCc3ccccc3)n2)cc1 [Compound 71, [4-(4-Chloro-phenyl)-thiazol-2-yl]-bis-(3-phenyl-propyl)-amine] | 111 µM | –
79% | Clc1ccc(-c2csc(N(Cc3ccccc3)Cc3ccccc3)n2)cc1 [Compound 72, Dibenzyl-[4-(4-chloro-phenyl)-thiazol-2-yl]-amine] | 127 µM | –
0% | CCCC(=O)Oc1ccc(CC(=O)Nc2nc(-c3ccc(Cl)cc3)cs2)cc1[N+](=O)[O-] [Compound 30, Butyric acid 4-{[4-(4-chloro-phenyl)-thiazol-2-ylcarbamoyl]-methyl}-2-nitro-phenyl ester] | 32 µM | –
0% | CCCC(=O)Oc1ccc(CCC(=O)Nc2nc(-c3ccc(Cl)cc3)cs2)cc1OC [Compound 29, Butyric acid 4-{2-[4-(4-chloro-phenyl)-thiazol-2-ylcarbamoyl]-ethyl}-2-methoxy-phenyl ester] | 26 µM | –
71% | O=C(Nc1nc2cc(Cl)ccc2o1)c1cccc(F)c1 [Compound 97, N-(5-Chloro-benzooxazol-2-yl)-3-fluoro-benzamide] | 1.7 µM | –
0% | O=C(NCCc1ccncc1)c1nc(-c2ccc(Cl)cc2)cs1 [Compound 61, 4-(4-Chloro-phenyl)-thiazole-2-carboxylic Acid (2-pyridin-4-yl-ethyl)-amide] | – | –
54% | O=C(Cc1ccc(F)cc1)Nc1nc(-c2ccc(Cl)cc2)cs1 [Compound 70, N-[4-(4-Chloro-phenyl)-thiazol-2-yl]-2-(4-fluoro-phenyl)-acetamide] | – | –
81% | CC(NC(=O)c1nc(-c2ccc(Cl)cc2)cs1)c1ccc(Cl)cc1 (stereo not shown) [Compound 56, 4-(4-Chloro-phenyl)-thiazole-2-carboxylic Acid [1-(4-chloro-phenyl)-ethyl]-amide] | – | –
41% | O=C(Nc1nc(-c2ccc(Cl)cc2)cs1)c1ccc(F)cc1 [Compound 67, N-[4-(4-Chloro-phenyl)-thiazol-2-yl]-4-fluoro-benzamide] | – | –
44% | O=C(NCc1ccc(F)c(C(F)(F)F)c1)c1nc(-c2ccc(Cl)cc2)cs1 [Compound 53, 4-(4-Chloro-phenyl)-thiazole-2-carboxylic Acid 4-fluoro-3-trifluoromethyl-benzylamide] | – | –
3% | CS(=O)(=O)c1ccc(CNC(=O)c2nc(-c3ccc(Cl)cc3)cs2)cc1 [Compound 63, 4-(4-Chloro-phenyl)-thiazole-2-carboxylic Acid 4-methanesulfonyl-benzylamide] | – | –
25% | O=C(NCc1ccc(Oc2ccccc2)cc1)c1nc(-c2ccc(Cl)cc2)cs1 [Compound 54, 4-(4-Chloro-phenyl)-thiazole-2-carboxylic Acid 4-phenoxy-benzylamide] | – | –
0% | CCCC(=O)Oc1ccc(CCC(=O)Nc2nc(-c3ccc(Cl)cc3)cs2)cc1OC(=O)CCC [Compound 26, Butyric acid 2-butyryloxy-4-{2-[4-(4-chloro-phenyl)-thiazol-2-ylcarbamoyl]-ethyl}-phenyl ester] | – | –
55% | O=C(Nc1nc(-c2ccc(Cl)cc2)cs1)C(Cl)c1ccccc1 (stereo not shown) [Compound 69, 2-Chloro-N-[4-(4-chloro-phenyl)-thiazol-2-yl]-2-phenyl-acetamide] | – | –
78% | O=C(NCc1ccc(OC(F)(F)F)cc1)c1nc(-c2ccc(Cl)cc2)cs1 [Compound 52, 4-(4-Chloro-phenyl)-thiazole-2-carboxylic Acid 4-trifluoromethoxy-benzylamide] | – | –
59% | O=C(NCc1cccc(OC(F)(F)F)c1)c1nc(-c2ccc(Cl)cc2)cs1 [Compound 43, 4-(4-Chloro-phenyl)-thiazole-2-carboxylic acid 3-trifluoromethoxy-benzylamide] | – | –
79% | O=C(NCc1cc(F)c(F)c(F)c1)c1nc(-c2ccc(Cl)cc2)cs1 [Compound 42, 4-(4-Chloro-phenyl)-thiazole-2-carboxylic acid 3,4,5-trifluoro-benzylamide] | – | –
